Measured values from patent publication US10722599B2, “Lipid assemblies and uses thereof and some pH and electrostatic modulating lipids to be used in said assemblies” (Yissum Research Development Company of the Hebrew …, priority 2015, dated 2020).
Where two headings read alike, the source gives them in different places.

Columns and labels:
BALB/c mice = assay: In vivo toxicity, single IV escalating dose; details: as formulated siRNA, Ampholip1 up to 10 mg/kg, Ampholip2 up to 5 mg/kg, 24 hours and 7 days
Method: Each group comprised six (6) males and six (6) females BALB/cOlaHsd mice, where half of each group (3 males and 3 females) were assigned to 24 hours or 7 days termination time points, respectively. Animals were subjected to clinical hematology and biochemistry assessment at 24 hours and 7 days post dosing, followed by gross macroscopic examination. The following parameters were evaluated for toxicity: mortality, clinical signs, body weight, weight gain, hematology and biochemistry tests.

[1] = in vivo, iv, 1 mg/kg
Method: (§1) Three animals were injected IV in each group with a dose of 1 mg/kg. Plasma was isolated at serial time points: pre-dosing (time 0), 10 minutes, 30 minutes, 1 hour, 2 hours 4 hours, 6 hours and 24 hours. RNA was extracted from the plasma according to Rosetta Genomics' protocol of miRNA isolation from fluids. qPCR was done for miR-34a, normalized to selected miRNAs: hsa-miR-16-5p, hsa-miR-103a-3p and hsa-miR-23a-3p.

[2] = tested on: orthotopic intraperitoneal tumors of SKOV-3 human ovarian adenocarcinoma cells; details: mouse, in vivo, ip, 7 mg/kg
Method: (§2) In vivo bio-distribution and activity of miR-34a or siRNA formulated with DOPC/Ampholip was evaluated in female nude mice bearing orthotopic intraperitoneal tumors of SKOV-3 human ovarian adenocarcinoma cells.
(§3) This experiment intended to assess the bio-distribution and activity of amphoteric liposomes/miR34a and amphoteric liposomes/miR-34a-SL. To this end, experimental model female nude mice bearing the orthotopic tumors received three series of repeated intraperitoneal (IP) injections (at days 20, 22 and 25) with amphoteric liposomes/miRNA in concentration of 7 mg/kg of miRNA. Twenty-four hours after the last dose the tumors were removed, and RNA extracted.

[3] = tested on: orthotopic intraperitoneal tumors of SKOV-3 human ovarian adenocarcinoma cells; assay: In vivo SKOV model: miR-34a accumulation in tumor (Ampholip 1); details: IP, 7 mg/kg miRNA, days 20, 22, 25, tumors 24 h after last dose, 'miR-34a-SL' = DOPC/Ampholip1/miR-34a-SL (2M), folate formulation = DOPC/Ampholip1/Folate/miR-34a (1M)
Method: as §2, §3

[4] = PK study with formulated miRNA; details: 71%-14%, from plasma levels at 30 minutes
Method: as §1

CCCCCCCCCCCCC/C=C/[C@@H](O)[C@H](COC(=O)NCCCNCCCCNCCCNC(=O)CCC(=O)O)NC(=O)CCCCCCCCCCCCCCC [Ampholip 2, Carboxy-N-palmitoyl-D-erythro-sphingosyl-1-carbamoyl spermine]
gross pathological findings (BALB/c mice): no gross pathological findings | mortality, clinical signs, body weight, weight gain, hematology and biochemistry vs saline-treated groups (BALB/c mice): No significant statistical difference

miR-34a-SL: hsa-miR-34a conjugated to sphingolipid, SEQ ID NO 1 and 3 (chain 1 UGGCAGUGUCUUAGCUGGUUGU; chain 2 CAAUCAGCAAGUAUACUGCCCU; sphingolipid conjugate, position not given here; listed as Homo sapiens)
share in circulation at 30 minutes relative to 10 minutes [1]: 14% | fold enrichment of miR-34a in tumor relative to the negative controls [2]: two | fold enrichment of miR-34a in tumor relative to the negative controls [3]: 604 fold

miR-34a: hsa-miR-34a naked (non-conjugated) duplex, SEQ ID NO 1 and 2 (chain 1 UGGCAGUGUCUUAGCUGGUUGU; chain 2 ACAAUCAGCAAGUAUACUGCCC; further chemistry not given here; listed as Homo sapiens)
plasma stability / bioavailability of miR-34a, in words [1]: rapidly degraded | estimate of encapsulation [4]: 57%
